{"source": "patent US11612611B2", "about": "“Composition and method for treating muscle cramps containing choline alfoscerate as active ingredient” (NANOSTEM CO., LTD., priority 2017, dated 2023)", "key": {"[1]": {"tested_on": "patients with muscle cramps", "assay": "Pain intensity (11-point PI-NRS) in patients with muscle cramps, one-month test", "type": "in vivo, human", "protocol": "Patients who experience muscle cramps when stabilized for 3 months without taking exercise were selected as subjects.\nThe “trigger point injection group (control group)” patients were injected with 5 mL of 0.5% lidocaine at the trigger points (4-5 points), once a week.\n(§1) The “choline alfoscerate intravenous administration group (Example 1)” patients were intravenously injected slowly with choline alfoscerate (1 g/4 mL) mixed in 100 mL of physiological saline, twice a week.\n(§2) The “choline alfoscerate oral administration group (Example 2)” patients were […] with choline alfoscerate (400 mg/capsule), 3 times a day.\nThe test period was one month. […] The pain intensity was evaluated according to the 11-point pain intensity numerical rating scale (PI-NRS), where 0=no pain, weakest pain=1 and most severe pain=10. 2-point reduction in the pain intensity was considered clinically significant as reported (Farrar 2001, Rowbotham 2001, Hawker 2011). The pain intensity was measured on the first visit and was compared with the pain intensity 2 weeks (T1) and 4 weeks (T2) after the first drug administration."}, "[2]": {"tested_on": "patients with nocturnal calf cramps", "details": "1-2 mL of 0.25% lidocaine at MTrPs of gastrocnemius muscle; cited from earlier work"}, "[3]": {"tested_on": "patients with muscle cramps", "assay": "Frequency of muscle cramps for a week in patients with muscle cramps, one-month test", "details": "for Frequency of muscle cramps: per week"}, "[4]": {"tested_on": "patients with muscle cramps", "assay": "Side effects after the treatment in patients with muscle cramps", "type": "in vivo, human", "protocol": "as §1, §2\nBecause choline alfoscerate has no effect on the kidney and liver, it is thought that it can be used for people with kidney or liver problems as a therapeutic agent for muscle cramps."}, "[5]": {"details": "reported since 1969; cited from earlier work"}, "[6]": {"details": "trigger point injection (0.5% lidocaine), before drug administration"}, "[7]": {"details": "trigger point injection, 5 mL 0.5% lidocaine once a week, T1 (first 2 weeks)"}, "[8]": {"details": "trigger point injection, 5 mL 0.5% lidocaine once a week, T2 (second 2 weeks)"}, "[9]": {"details": "trigger point injection, 5 mL 0.5% lidocaine once a week, before drug administration (baseline)"}, "[10]": {"details": "Example 1, intravenous 1 g twice a week, T1 (first 2 weeks)"}, "[11]": {"details": "Example 1, intravenous 1 g twice a week, T2 (second 2 weeks)"}, "[12]": {"details": "Example 1, intravenous 1 g twice a week, before drug administration (baseline)"}, "[13]": {"details": "Example 2, oral 400 mg capsule 3 times a day, T1 (first 2 weeks)"}, "[14]": {"details": "Example 2, oral 400 mg capsule 3 times a day, T2 (second 2 weeks)"}, "[15]": {"details": "Example 2, oral 400 mg capsule 3 times a day, before drug administration (baseline)"}, "[16]": {"details": "intravenous administration group (Example 1), T1"}, "[17]": {"details": "intravenous administration group (Example 1), T2"}, "[18]": {"details": "intravenous administration group (Example 1), before drug administration"}, "[19]": {"details": "oral administration group (Example 2), T1"}, "[20]": {"details": "oral administration group (Example 2), T2"}, "[21]": {"details": "oral administration group (Example 2), before drug administration"}}}
{"smiles": "CCN(CC)CC(=O)Nc1c(C)cccc1C", "note": "[Control group (TPI), lidocaine]", "values": [{"measurement": "pain intensity", "setting": "[1]; trigger point injection (0.5% lidocaine), 2 weeks after first drug administration (T1)", "result": 3.74, "unit": "points"}, {"measurement": "pain intensity", "setting": "[1]; trigger point injection (0.5% lidocaine), 4 weeks after first drug administration (T2)", "result": 2.11, "unit": "points"}, {"measurement": "pain intensity", "setting": "[1]; [6]", "result": 5.34, "unit": "points"}, {"measurement": "pain intensity", "setting": "[1]; [7]", "result": "3.74 ± 0.91"}, {"measurement": "pain intensity", "setting": "[1]; [8]", "result": "2.11 ± 0.76"}, {"measurement": "pain intensity", "setting": "[1]; [9]", "result": "5.34 ± 0.87"}, {"measurement": "frequency of cramps for a week as compared to before the administration", "setting": "[2]", "result": "decreased significantly"}, {"measurement": "insomnia severity index (ISI) as compared to before the administration", "setting": "[2]", "result": "decreased significantly"}, {"measurement": "intensity of pain as compared to before the administration", "setting": "[2]", "result": "decreased significantly"}, {"measurement": "frequency of muscle cramps for a week", "setting": "[3]; trigger point injection (0.5% lidocaine), T1", "result": 2.00, "unit": "times"}, {"measurement": "frequency of muscle cramps for a week", "setting": "[3]; trigger point injection (0.5% lidocaine), T2", "result": 1.43, "unit": "times"}, {"measurement": "frequency of muscle cramps for a week", "setting": "[3]; [6]", "result": 2.84, "unit": "times"}, {"measurement": "Frequency of muscle cramps", "setting": "[3]; [7]", "result": "2.00 ± 0.68"}, {"measurement": "Frequency of muscle cramps", "setting": "[3]; [8]", "result": "1.43 ± 0.53"}, {"measurement": "Frequency of muscle cramps", "setting": "[3]; [9]", "result": "2.84 ± 0.99"}]}
{"smiles": "C[N+](C)(C)CCOP(=O)([O-])OC[C@H](O)CO", "note": "[choline alfoscerate]", "values": [{"measurement": "side effect after the treatment", "setting": "[4]; intravenous administration group (Example 1)", "result": "no side effect"}, {"measurement": "side effect after the treatment", "setting": "[4]; oral administration group (Example 2)", "result": "no side effect"}, {"measurement": "pain intensity", "setting": "[1]; [10]", "result": "2.56 ± 1.49"}, {"measurement": "pain intensity", "setting": "[1]; [11]", "result": "1.32 ± 0.91"}, {"measurement": "pain intensity", "setting": "[1]; [12]", "result": "6.50 ± 1.26"}, {"measurement": "pain intensity", "setting": "[1]; [13]", "result": "3.94 ± 1.17"}, {"measurement": "pain intensity", "setting": "[1]; [14]", "result": "1.88 ± 0.92"}, {"measurement": "pain intensity", "setting": "[1]; [15]", "result": "6.31 ± +0.94"}, {"measurement": "pain intensity as compared to trigger point injection group (control group)", "setting": "[1]; intravenous (Example 1), at both T1 and T2, P < 0.05", "result": "significant decrease"}, {"measurement": "pain intensity", "setting": "[1]; [16]", "result": 2.56, "unit": "points"}, {"measurement": "pain intensity", "setting": "[1]; [17]", "result": 1.32, "unit": "points"}, {"measurement": "pain intensity", "setting": "[1]; [18]", "result": 6.50, "unit": "points"}, {"measurement": "pain intensity", "setting": "[1]; [19]", "result": 3.94, "unit": "points"}, {"measurement": "pain intensity", "setting": "[1]; [20]", "result": 1.88, "unit": "points"}, {"measurement": "pain intensity", "setting": "[1]; [21]", "result": 6.31, "unit": "points"}, {"measurement": "Frequency of muscle cramps", "setting": "[3]; [10]", "result": "1.56 ± 1.34"}, {"measurement": "Frequency of muscle cramps", "setting": "[3]; [11]", "result": "0.88 ± 1.19"}, {"measurement": "Frequency of muscle cramps", "setting": "[3]; [12]", "result": "4.91 ± 2.40"}, {"measurement": "Frequency of muscle cramps", "setting": "[3]; [13]", "result": "2.67 ± 1.07"}, {"measurement": "Frequency of muscle cramps", "setting": "[3]; [14]", "result": "1.05 ± 0.70"}, {"measurement": "Frequency of muscle cramps", "setting": "[3]; [15]", "result": "5.25 ± 1.47"}, {"measurement": "frequency of muscle cramps for a week as compared to control group", "setting": "[3]; intravenous (Example 1), T1, P < 0.05", "result": "significant decrease"}, {"measurement": "frequency of muscle cramps as compared to control group", "setting": "[3]; intravenous (Example 1), T2", "result": "significant decrease"}, {"measurement": "frequency of muscle cramps for a week", "setting": "[3]; [16]", "result": 1.56, "unit": "times"}, {"measurement": "frequency of muscle cramps for a week", "setting": "[3]; [17]", "result": 0.88, "unit": "time"}, {"measurement": "frequency of muscle cramps for a week", "setting": "[3]; [18]", "result": 4.91, "unit": "times"}, {"measurement": "frequency of muscle cramps for a week as compared to control group", "setting": "[3]; oral (Example 2), T1, higher baseline frequency in this group", "result": "significant increase"}, {"measurement": "frequency of muscle cramps as compared to control group", "setting": "[3]; oral (Example 2), T2", "result": "significant decrease"}, {"measurement": "frequency of muscle cramps for a week", "setting": "[3]; [19]", "result": 2.67, "unit": "times"}, {"measurement": "frequency of muscle cramps for a week", "setting": "[3]; [20]", "result": 1.05, "unit": "times"}, {"measurement": "frequency of muscle cramps for a week", "setting": "[3]; [21]", "result": 5.25, "unit": "times"}]}
{"smiles": "C=C[C@H]1C[N@@]2CC[C@H]1C[C@H]2[C@H](O)c1ccnc2ccc(OC)cc12", "note": "[quinine]", "values": [{"measurement": "death reported", "setting": "[5]", "result": 93, "unit": "cases"}, {"measurement": "severe side effects reported", "setting": "[5]", "result": 665, "unit": "cases"}]}
